Data from patent US20090312316A1, “NOVEL COMPOUNDS” (priority 2006, published 2009).

Tests used:
[1] = tested on: panel of 12 human tumour cell lines; test: monolayer proliferation assay (modified propidium iodide assay) in a panel of 12 human tumour cell lines; type: cell-based; conditions: for Mean percentage Inhibition of cancer cell lines at 1 uM: 100 minus mean %T/C at 1 uM of Table III; for Mean % T/C at 1 μM / Mean % T/C at 10 μM: mean growth across 12 cell-line panel, treated/control x 100, 4 days exposure
Protocol: In vitro evaluation of compounds for anticancer activity in a panel of 12 human tumour cell lines in a monolayer proliferation assay was carried out at the Oncotest Testing Facility, Institute for Experimental Oncology, Oncotest GmbH, Freiburg.
The Oncotest cell lines were established from human tumor xenografts as described by Roth et al., (1999). The origin of the donor xenografts was described by Fiebig et al., (1999). Other cell lines were either obtained from the NCI (H460, SF-268, OVCAR-3, DU145, MDA-MB-231, MDA-MB-468) or purchased from DSMZ, Braunschweig, Germany (LNCAP).
All cell lines, unless otherwise specified, were grown at 37° C. in a humidified atmosphere (95% air, 5% CO2) in a ‘ready-mix’ medium containing RPMI 1640 medium, 10% fetal calf serum, and 0.1 mg/mL gentamicin (PAA, Cölbe, Germany).
A modified propidium iodide assay was used to assess the effects of the test compound(s) on the growth of human tumour cell lines (Dengler et al., (1995)).
Briefly, cells were harvested from exponential phase cultures by trypsinization, counted and plated in 96 well flat-bottomed microtitre plates at a cell density dependent on the cell line (5-10.000 viable cells/well). After 24 h recovery to allow the cells to resume exponential growth, 0.010 mL of culture medium (6 control wells per plate) or culture medium containing macbecin were added to the wells. Each concentration was plated in triplicate. Compounds were applied in two concentrations (0.001 mM and 0.01 mM). Following 4 days of continuous exposure, cell culture medium with or without test compound was replaced by 0.2 mL of an aqueous propidium iodide (PI) solution (7 mg/L). To measure the proportion of living cells, cells were permeabilized by freezing the plates. After thawing the plates, fluorescence was measured using the Cytofluor 4000 microplate reader (excitation 530 nm, emission 620 nm), giving a direct relationship to the total number of viable cells.
The mean growth inhibition across the 12 cell-line panel was expressed as treated/control×100 (% T/C).
In vitro evaluation of the test compounds for anticancer activity in a panel of human tumour cell lines in a monolayer proliferation assay was carried out as described in the general methods using a modified propidium iodide assay. This screen may be used as a model for the toxic effect of compounds in inhibiting general cell growth.

[2] = Cleavage studies in rat blood to give the parent acid 6; type: in vitro ADME; conditions: rat blood (EDTA), 0.01 mg/mL, 37° C.; for cleavage to give the parent compound 6: up to 180 minutes
Protocol: The sample was diluted to a volume of 1 mL by addition of 0.1 M aqueous KH2PO4. […] An Oasis MAX cartridge (1 cc/30 mg) was conditioned with 1 mL MeOH and 1 mL water successively. The supernatant was transferred to the conditioned cartridge at a flow rate of 1-2 mL/min. […] The extracts were transferred to autosampler vials and immediately analysed by LC/MS. […] LCMS was performed on a Bruker Daltonics Esquire 3000+ mass spectrometer equipped with an electrospray source coupled to the HPLC. […] Injection volume: 0.05 mL. HPLC was performed on a Waters Symmetry C8 3.5 micron column, 50 mm×2.1 mm, running a mobile phase of: mobile phase A: 0.1% formic acid in water; mobile phase B: 0.1% Formic acid in acetonitrile; flow rate: 1 mL/minute. […] Fragmentation of this molecular species results in a spectrum with intense ions at m/z 271 and 412. The daughter ion at m/z 412 can be ideally selected for quantification.

CAM vasculature = test: Chick chorioallantoic membrane (CAM) assay of anti-angiogenic activity; type: in vivo; conditions: for Ratio of inhibition of CAM vasculature at 25 ng/CAM to in vitro cancer cell inhibition at 1 uM: 25 ng/CAM versus 1 uM in cancer cell panel; for Mean blood vessel density score: angiogenesis score up to 32 (highest density), 0 = no angiogenesis, mean of ten experiments; for anti-angiogenic therapeutic index (ratio of anti-angiogenesis to general cell inhibition), in words: as compared to 1 and 6
Protocol: Fresh fertile eggs were be incubated for 3 days in a standard egg incubator at 37° C. for 3 days. On Day 3, eggs were cracked under sterile conditions and embryos were placed into 20×100 mm plastic plates and cultivated at 37° C. in an embryo incubator with a water reservoir on the bottom shelf. Air was continuously bubbled into the water reservoir using a small pump so that the humidity in the incubator was kept constant. […] Embryos were returned to the incubator after addition of test material. Control embryos received 10 μL of vehicle alone. […] The blood vessel density was semi-quantitatively measured using an angiogenesis scoring system, in that exponential numbers 1 to 32 were used to indicate number of blood vessels present at the treatment sites on the CAM. Number 32 represented the highest density and 0 represented no angiogenesis. The percent of inhibition at each dosing site was calculated using the score recorded for that site divided by the mean score obtained from the appropriate control samples for each individual experiment. The percent of inhibition for each dose of a given compound was calculated by pooling all results obtained for that dose.

endothelial cells = conditions: with respect to borrelidin; WO 01/09113; cited from earlier work
[3] = tested on: mouse colon adenocarcinoma cells; conditions: subtoxic dose; cited from earlier work
[4] = tested on: Lewis lung adenocarcinoma; conditions: rats; intraperitoneal and per os administration at subtoxic doses; cited from earlier work

Molecule	inhibition of cell growth at 1 μM (in words) [1]	Mean % T/C at 1 μM [1] [% T/C]	Mean % T/C at 10 μM [1] [% T/C]	also measured
CC1CC(C)CC(C)C(O)C(C#N)=CC=CCC(C2CCC2C(=O)NCCN2CCOCC2)OC(=O)CC(O)C(C)C1 (stereo not drawn) [Compound 9, 17-des(cyclopentane-2-carboxylic acid)-17-(cyclobutane-2-carboxylic acid)borrelidin (4-(2-aminoethyl))morpholine amide]	little or no inhibition of cell growth	101	43	Mean percentage Inhibition of cancer cell lines at 1 uM [1]: 0%; cleavage to give the parent compound 6 [2]: did not cleave; Mean percentage inhibition of CAM vasculature at 25 ng/CAM (CAM vasculature): 60%; Ratio of inhibition of CAM vasculature at 25 ng/CAM to in vitro cancer cell inhibition at 1 uM (CAM vasculature): >60; Mean blood vessel density score (CAM vasculature): 6.8; anti-angiogenic therapeutic index (ratio of anti-angiogenesis to general cell inhibition), in words (CAM vasculature): especially good
CC1CC(C)CC(C)C(O)C(C#N)=CC=CCC(C2CCC2C(=O)NCc2ccncc2)OC(=O)CC(O)C(C)C1 (stereo not drawn) [Compound 10, 17-des(cyclopentane-2-carboxylic acid)-17-(cyclobutane-2-carboxylic acid)borrelidin (4-aminomethyl)pyridine amide]	little or no inhibition of cell growth	104	57	–
borrelidin-amide	–	–	–	selectivity index for capillary formation inhibitory activity versus cell proliferation (endothelial cells): 37 fold
17-des(cyclopentane-2-carboxylic acid)-17-(cyclobutane-2-carboxylic acid)borrelidin (4-(2-hydroxyethyl))morpholine ester [Compound 7]	–	36	8	Mean percentage Inhibition of cancer cell lines at 1 uM [1]: 64%; half-life for the cleavage to parent compound 6 [2]: ~12 min; cleavage to give the parent compound 6 [2]: rapidly cleaved; Mean percentage inhibition of CAM vasculature at 25 ng/CAM (CAM vasculature): 54%; Ratio of inhibition of CAM vasculature at 25 ng/CAM to in vitro cancer cell inhibition at 1 uM (CAM vasculature): 0.84; Mean blood vessel density score (CAM vasculature): 7.8; anti-angiogenic therapeutic index (ratio of anti-angiogenesis to general cell inhibition), in words (CAM vasculature): improved
CC1CC(C)CC(C)C(O)C(C#N)=CC=CCC(C2CCC2C(=O)NCc2cccnc2)OC(=O)CC(O)C(C)C1 (stereo not drawn) [Compound 11, 17-des(cyclopentane-2-carboxylic acid)-17-(cyclobutane-2-carboxylic acid)borrelidin (3-aminomethyl)pyridine amide]	little or no inhibition of cell growth	97	20	–
C[C@@H]1C[C@H](C)C[C@H](C)[C@@H](O)CC(=O)O[C@H]([C@@H]2CCC[C@H]2C(=O)NCCN2CCOCC2)C/C=C/C=C(/C#N)[C@H](O)[C@@H](C)C1 [borrelidin-morpholinoethyl amide]	–	–	–	selectivity index for capillary formation inhibitory activity versus cell proliferation (endothelial cells): 6 fold
C[C@@H]1C[C@H](C)C[C@H](C)[C@@H](O)CC(=O)O[C@H]([C@@H]2CCC[C@H]2C(=O)OCCN2CCOCC2)C/C=C/C=C(/C#N)[C@H](O)[C@@H](C)C1 [borrelidin-morpholinoethyl ester]	–	–	–	selectivity index for capillary formation inhibitory activity versus cell proliferation (endothelial cells): 60 fold
C[C@@H]1C[C@H](C)C[C@H](C)[C@@H](O)CC(=O)O[C@@H](C2CC[C@H]2C(=O)O)C/C=C/C=C(/C#N)[C@H](O)[C@@H](C)C1 (stereo partly drawn) [Compound 6, 17-des(cyclopentane-2-carboxylic acid)-17-(cyclobutane-2-carboxylic acid)borrelidin]	–	33	8	inhibition at 1 µM ([1]; Homo sapiens, read-out: Mean percentage Inhibition of cancer cell lines at 1 uM): 67%; Mean percentage inhibition of CAM vasculature at 25 ng/CAM (CAM vasculature): 51%; Ratio of inhibition of CAM vasculature at 25 ng/CAM to in vitro cancer cell inhibition at 1 uM (CAM vasculature): 0.76; Mean blood vessel density score (CAM vasculature): 8.2
CC1CC(C)CC(C)C(O)C(C#N)=CC=CCC(C2CCC2C(=O)NCc2ccccn2)OC(=O)CC(O)C(C)C1 (stereo not drawn) [Compound 12, 17-des(cyclopentane-2-carboxylic acid)-17-(cyclobutane-2-carboxylic acid)borrelidin (2-aminomethyl)pyridine amide]	little or no inhibition of cell growth	87	15	–
17-des(cyclopentane-2-carboxylic acid)-17-(cyclobutane-2-carboxylic acid)borrelidin (2-(2-hydroxyethyl)pyridine ester [Compound 8]	–	40	6	–
CC1CC(C)CC(C)C(O)C(C#N)=CC=CCC(C2CCCC2C(=O)OCCc2ccccn2)OC(=O)CC(O)C(C)C1 (stereo not drawn) [borrelidin-(2-pyridyl)-ethyl ester]	–	–	–	selectivity index for capillary formation inhibitory activity versus cell proliferation (endothelial cells): 7.5 fold
CC1CC(C)CC(C)C(O)C(C#N)=CC=CCC(C2CCC2C(N)=O)OC(=O)CC(O)C(C)C1 (stereo not drawn) [Compound 14, 17-des(cyclopentane-2-carboxylic acid)-17-(cyclobutane-2-carboxylic acid)borrelidin amide]	little or no inhibition of cell growth	92	26	–
CC1CC(C)CC(C)C(O)C(C#N)=CC=CCC(C2CCC2C(=O)NCCc2cccnc2)OC(=O)CC(O)C(C)C1 (stereo not drawn) [Compound 13, 17-des(cyclopentane-2-carboxylic acid)-17-(cyclobutane-2-carboxylic acid)borrelidin (3-(2-aminoethyl))pyridine amide]	little or no inhibition of cell growth	97	37	cleavage to give the parent compound 6 [2]: did not cleave
CC1CC(C)CC(C)C(O)CC(=O)OC(C2CCCC2C(=O)NCc2cccnc2)C(C#N)=CC=CCC(O)C(C)C1 (stereo not drawn) [borrelidin-(3-picolylamide) derivative, borrelidin-(3-picolylamide)]	–	–	–	metastasis-forming ability of mouse colon adenocarcinoma cells transplanted into mouse spleen [3]: considerably decreased; increase of micrometastases [4]: inhibit very considerably
